Data on six compounds can be found in patent publication US8541584B2, “3-(1,2,3-triazol-4-yl) pyrrolo [2,3-b] pyridine derivatives” (Merck Patent GmbH, priority 2009, dated 2013).

The experiment has as its target T1, TANK binding kinase (TBK1) (Homo sapiens, UniProt Q9UHD2).
T1 sequence (Q9UHD2 1-729): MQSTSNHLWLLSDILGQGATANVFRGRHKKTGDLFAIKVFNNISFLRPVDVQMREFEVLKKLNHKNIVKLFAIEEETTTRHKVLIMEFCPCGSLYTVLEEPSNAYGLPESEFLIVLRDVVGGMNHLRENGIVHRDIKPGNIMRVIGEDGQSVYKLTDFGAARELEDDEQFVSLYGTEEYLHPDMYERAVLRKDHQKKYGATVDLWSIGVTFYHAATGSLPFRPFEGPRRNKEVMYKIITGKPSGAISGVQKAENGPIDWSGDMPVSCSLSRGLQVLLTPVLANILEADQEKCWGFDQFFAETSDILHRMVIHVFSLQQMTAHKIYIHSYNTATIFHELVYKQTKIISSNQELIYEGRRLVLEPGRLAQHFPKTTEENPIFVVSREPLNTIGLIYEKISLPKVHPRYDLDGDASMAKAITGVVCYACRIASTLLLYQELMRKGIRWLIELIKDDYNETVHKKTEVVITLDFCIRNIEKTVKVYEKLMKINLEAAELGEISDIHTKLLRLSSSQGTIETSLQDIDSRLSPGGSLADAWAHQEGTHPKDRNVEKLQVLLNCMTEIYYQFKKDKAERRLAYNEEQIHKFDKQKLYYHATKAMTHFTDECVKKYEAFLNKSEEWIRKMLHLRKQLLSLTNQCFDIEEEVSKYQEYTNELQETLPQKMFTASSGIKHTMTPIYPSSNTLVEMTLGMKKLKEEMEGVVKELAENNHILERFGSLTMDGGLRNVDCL
Briefly: TBK1 kinase test (384-well flashplate). The format is biochemical. The following applies: 0.6 nM TBK1, 10 μM ATP, 30° C., 120 min. Here is the method:
The kinase assay is performed as 384-well flashplate assay. 0.6 nM TANK binding kinase (TBK1), 800 nM biotinylated MELK-derived peptide (biotin-Ah-Ah-[…]) and 10 μM ATP (with 0.25 μCi of ^33P-ATP/well) are incubated in a total volume of 50 μl (10 mM MOPS, 10 mM magnesium acetate, 0.1 mM EGTA, 1 mM DTT, 0.02% of Brij35, 0.1% of BSA, pH 7.5) with or without test substance at 30° C. for 120 min. The reaction is stopped using 25 μl of 200 mM EDTA solution, filtered off with suction after 30 min at room temperature, and the wells are washed 3 times with 100 μl of 0.9% NaCl solution. The non-specific proportion of the kinase reaction (blank) is determined using 100 nM staurosporine. Radioactivity is measured in the Topcount. IC50 values are calculated using RS1.
Turning to `Cc1cccc(Cn2cc(-c3c[nH]c4ncc(-c5cnn(C)c5)cc34)nn2)c1` [Compound A7, 3-[1-(3-Methylbenzyl)-1H-1,2,3-triazol-4-yl]-5-(1-methyl-1H-pyrazol-4-yl)-1H-pyrrolo[2,3-b]pyridine], the IC50 is 0.5 to 1000 nM.

`Cn1cc(-c2cnc3[nH]cc(-c4cn(Cc5ccncc5)nn4)c3c2)cn1` [Compound A9, 5-(1-Methyl-1H-pyrazol-4-yl)-3-(1-pyridin-4-ylmethyl-1H-1,2,3-triazol-4-yl)-1H-pyrrolo-[2,3-b]pyridine]: the IC50 was 0.5 to 1000 nM.

Compound `Cn1cc(-c2cnc3[nH]cc(-c4cn(Cc5ccccc5F)nn4)c3c2)cn1` [Compound A17, 3-[1-(2-Fluorobenzyl)-1H-1,2,3-triazol-4-yl]-5-(1-methyl-1H-pyrazol-4-yl)-1H-pyrrolo-[2,3-b]pyridine] showed an IC50 of 0.5 to 1000 nM.

On to `CC(c1ccccc1C(F)(F)F)n1cc(-c2c[nH]c3ncc(-c4cnn(C)c4)cc23)nn1` (stereo not drawn) [Compound A20, 5-(1-Methyl-1H-pyrazol-4-yl)-3-{1-[1-(2-trifluoromethylphenyl)ethyl]-1H-1,2,3-triazol-4-yl}-1H-pyrrolo[2,3-b]pyridine], for which the IC50 was in the range of 0.5 to 1000 nM.

`Cn1cc(-c2cnc3[nH]cc(-c4cn(Cc5cccc(F)c5F)nn4)c3c2)cn1` [Compound A25, 3-[1-(2,3-Difluorobenzyl)-1H-1,2,3-triazol-4-yl]-5-(1-methyl-1H-pyrazol-4-yl)-1H-pyrrolo-[2,3-b]pyridine] showed an IC50 of 0.5 to 1000 nM.

Consider `Cn1cc(-c2cnc3[nH]cc(-c4cn(Cc5ccc6ncccc6c5)nn4)c3c2)cn1` [Compound A29, 6-{4-[5-(1-Methyl-1H-pyrazol-4-yl)-1H-pyrrolo[2,3-b]pyridin-3-yl]-1,2,3-triazol-1-ylmethyl}quinoline], for which the half-inhibitory concentration (IC50) fell in the range of 0.5 to 1000 nM.

The term IC50 denotes the concentration needed to halve the response being measured.
